Values after ≈ are worked out from the molar mass of the structure shown. Read-outs that look alike come from different tables or passages of the source.
Experiments:
Type in all cases: cell-based
[1] = system: Cryptococcus neoformans; test: MIC against C. neoformans (NCCLS broth dilution); details: for MIC: Cryptococcus neoformans, read-out: Minimum inhibitory concentration, C. neoformans
Excerpt: (§1) To determine the antifungal activity of these compounds we screened for their minimum inhibitory concentrations (MIC) against the major dermatophytes that cause onychomycosis, T. rubrum and T. mentagrophytes, and against the yeasts and molds C. albicans, C. neoformans and A. fumigatus to test for their broad spectrum activity. The antifungal agent ciclopirox, currently in use for the topical treatment of onychomycosis, was used as a reference.
(§2) All MIC testing against Trichophyton rubrum, Trichophyton mentagrophytes, Candida albicans, Cryptococcus neoformans and Aspergillus fumigatus were determined following the National Committee for Clinical Laboratory Standards (NCCLS) guidelines for antimicrobial testing of yeasts and filamentous fungi.^i,ii
(§3) Two-fold serial dilutions of the test compounds were prepared in 96-well plates. […] Pfaller M A, Chaturvedi V, Espinel-Ingroff A, Ghannoum M A, Gosey L L, Odds F C, Rex J H, Rinaldi M G, Sheehan D J, Walsh T J, Warnock D W. NCCLS publication M27-A2—Reference Method for Broth Dilution Antifungal Susceptibility Testing of Yeasts; Approved Standard—Second Edition. […] Pfaller M A, Chaturvedi V, Espinel-Ingroff A, Ghannoum M A, Gosey L L, Odds F C, Rex J H, Rinaldi M G, Sheehan D J, Walsh T J, Warnock D W. NCCLS publication M38-A—Reference Method for Broth Dilution Antifungal Susceptibility Testing of Filamentous Fungi; Approved Standard.

[2] = system: Aspergillus fumigatus; test: MIC against A. fumigatus (NCCLS broth dilution); details: for MIC: Aspergillus fumigatus, read-out: Minimum inhibitory concentration, A. fumigatus
Excerpt: as §1, §2, §3

[3] = system: Trichophyton rubrum; test: MIC against T. rubrum (NCCLS broth dilution); details: for MIC: Trichophyton rubrum, read-out: Minimum inhibitory concentration, T. rubrum
Excerpt: as §1, §2, §3

[4] = system: Candida albicans; test: MIC against C. albicans (NCCLS broth dilution); details: for MIC: Candida albicans, read-out: Minimum inhibitory concentration, C. albicans
Excerpt: as §1, §2, §3

[5] = system: Trichophyton mentagrophytes; test: MIC against T. mentagrophytes (NCCLS broth dilution); details: for MIC: Trichophyton mentagrophytes, read-out: Minimum inhibitory concentration, T. mentagrophytes
Excerpt: as §1, §2, §3

[6] = Table 1, over 90% reduction of growth, 24-168 h at 35° C.

Row | Molecule | MIC ([1]; Table 3, 1-hydroxy series (19)) | MIC ([2]; Table 3, 1-hydroxy series (19)) | MIC ([3]; Table 3, 1-hydroxy series (19)) | MIC ([4]; Table 3, 1-hydroxy series (19)) | MIC ([5]; Table 3, 1-hydroxy series (19)) | Minimum inhibitory concentration, C. neoformans ([1]; Table 3, 1-hydroxy series (19)) | Minimum inhibitory concentration, A. fumigatus ([2]; Table 3, 1-hydroxy series (19)) | Minimum inhibitory concentration, T. rubrum ([3]; Table 3, 1-hydroxy series (19)) | Minimum inhibitory concentration, C. albicans ([4]; Table 3, 1-hydroxy series (19)) | Minimum inhibitory concentration, T. mentagrophytes ([5]; Table 3, 1-hydroxy series (19)) | other results
1 | 1,3-Dihydro-1-hydroxy-2,1-naphtho[2,1-d]oxaborole [19j] |  |  |  |  |  | 32 µg/mL | 32 µg/mL | 4 µg/mL | 32 µg/mL | 2 µg/mL | 
2 | 1,3-Dihydro-1-hydroxy-5-trifluoromethoxy-benzoxaborole [19i] |  |  |  |  |  | >64 µg/mL | >64 µg/mL | 64 µg/mL | >64 µg/mL | 64 µg/mL | 
3 | Clc1cccc(B2OCc3ccccc32)c1 [9c, 1-(3-Chlorophenyl)-1,3-dihydro-2,1-benzoxaborole] |  |  |  |  |  |  |  |  |  |  | MIC ([1]; Table 2, 1-phenyl series (9)): 4 µg/mL (≈ 17.5 µM); MIC ([2]; Table 2, 1-phenyl series (9)): 8 µg/mL (≈ 35 µM); MIC ([3]; Table 2, 1-phenyl series (9)): 16 µg/mL (≈ 70 µM); MIC ([4]; Table 2, 1-phenyl series (9)): 8 µg/mL (≈ 35 µM); MIC ([5]; Table 2, 1-phenyl series (9)): 8 µg/mL (≈ 35 µM)
4 | Fc1cccc(B2OCc3ccccc32)c1 [9d, 1,3-Dihydro-1-(3-fluorophenyl)-2,1-benzoxaborole] |  |  |  |  |  |  |  |  |  |  | MIC ([1]; Table 2, 1-phenyl series (9)): 4 µg/mL (≈ 18.9 µM); MIC ([2]; Table 2, 1-phenyl series (9)): 8 µg/mL (≈ 37.7 µM); MIC ([3]; Table 2, 1-phenyl series (9)): 8 µg/mL (≈ 37.7 µM); MIC ([4]; Table 2, 1-phenyl series (9)): 4 µg/mL (≈ 18.9 µM); MIC ([5]; Table 2, 1-phenyl series (9)): 16 µg/mL (≈ 75.5 µM)
5 | OB1OCc2ccccc21 [19a, 1,3-Dihydro-1-hydroxy-2,1-benzoxaborole] |  |  |  |  |  |  |  |  |  |  | MIC [1]: 1 µg/mL (≈ 7.47 µM); MIC [2]: 2 µg/mL (≈ 14.9 µM); MIC [3]: 8 µg/mL (≈ 59.7 µM); MIC [4]: 2 µg/mL (≈ 14.9 µM); MIC [5]: 4 µg/mL (≈ 29.9 µM)
6 | OB1OCc2cc(F)ccc21 [19b, 1,3-Dihydro-5-fluoro-1-hydroxy-2,1-benzoxaborole] |  |  |  |  |  | 0.25 µg/mL (≈ 1.65 µM) | 0.25 µg/mL (≈ 1.65 µM) | 1 µg/mL (≈ 6.58 µM) | 0.5 µg/mL (≈ 3.29 µM) | 1 µg/mL (≈ 6.58 µM) | fold increase in activity against C. neoformans ([1]; 19a relative to 9a, 19b relative to 9b): 8 fold; MIC [1, 6]: 0.25 µg/mL (≈ 1.65 µM); MIC [2, 6]: 0.25 µg/mL (≈ 1.65 µM); MIC [3, 6]: 1 µg/mL (≈ 6.58 µM); MIC [4, 6]: 0.5 µg/mL (≈ 3.29 µM); MIC [5, 6]: 1 µg/mL (≈ 6.58 µM)
7 | N#Cc1ccc2c(c1)COB2O [19f, 5-Cyano-1,3-dihydro-1-hydroxy-2,1-benzoxaborolane] |  |  |  |  |  | 16 µg/mL (≈ 101 µM) | 8 µg/mL (≈ 50.3 µM) | 8 µg/mL (≈ 50.3 µM) | 16 µg/mL (≈ 101 µM) | 8 µg/mL (≈ 50.3 µM) | 
8 | OCc1ccc2c(c1)COB2O [19h, 1,3-Dihydro-1-hydroxy-5-hydroxymethyl-2,1-benzoxaborole] | > 64 µg/mL | > 64 µg/mL | 64 µg/mL (≈ 390 µM) | > 64 µg/mL | 32 µg/mL (≈ 195 µM) |  |  |  |  |  | 
9 | OB1OCc2cc(F)c(F)cc21 [19k, 5,6-Difluoro-1,3-dihydro-1-hydroxy-2,1-benzoxaborolane] |  |  |  |  |  | 2 µg/mL (≈ 11.8 µM) | 2 µg/mL (≈ 11.8 µM) | 4 µg/mL (≈ 23.5 µM) | 4 µg/mL (≈ 23.5 µM) | 4 µg/mL (≈ 23.5 µM) | 
10 | OB1OCc2c(F)cccc21 [19l, 1,3-Dihydro-4-fluoro-1-hydroxy-2,1-benzoxaborole] | 32 µg/mL (≈ 211 µM) | 32 µg/mL (≈ 211 µM) | 16 µg/mL (≈ 105 µM) | 64 µg/mL (≈ 421 µM) | 16 µg/mL (≈ 105 µM) |  |  |  |  |  | 

Continued, in another order:

Row | MIC ([1]; Table 3, 1-hydroxy series (19)) | MIC ([2]; Table 3, 1-hydroxy series (19)) | MIC ([3]; Table 3, 1-hydroxy series (19)) | MIC ([4]; Table 3, 1-hydroxy series (19)) | MIC ([5]; Table 3, 1-hydroxy series (19)) | Molecule | Minimum inhibitory concentration, C. neoformans ([1]; Table 3, 1-hydroxy series (19)) | Minimum inhibitory concentration, A. fumigatus ([2]; Table 3, 1-hydroxy series (19)) | Minimum inhibitory concentration, T. rubrum ([3]; Table 3, 1-hydroxy series (19)) | Minimum inhibitory concentration, C. albicans ([4]; Table 3, 1-hydroxy series (19)) | Minimum inhibitory concentration, T. mentagrophytes ([5]; Table 3, 1-hydroxy series (19)) | other results
11 | 2 µg/mL (≈ 11.9 µM) | 1 µg/mL (≈ 5.94 µM) | 1 µg/mL (≈ 5.94 µM) | 1 µg/mL (≈ 5.94 µM) | 2 µg/mL (≈ 11.9 µM) | OB1OCc2cc(Cl)ccc21 [19d, 5-Chloro-1,3-dihydro-1-hydroxy-2,1-benzoxaborole] |  |  |  |  |  | 
12 | 8 µg/mL (≈ 54.1 µM) | 2 µg/mL (≈ 13.5 µM) | 8 µg/mL (≈ 54.1 µM) | 2 µg/mL (≈ 13.5 µM) | 4 µg/mL (≈ 27 µM) | Cc1ccc2c(c1)COB2O [19e, 1,3-Dihydro-1-hydroxy-5-methyl-2,1-benzoxaborole] |  |  |  |  |  | 
13 | 32 µg/mL (≈ 211 µM) | 8 µg/mL (≈ 52.7 µM) | 16 µg/mL (≈ 105 µM) | 16 µg/mL (≈ 105 µM) | 32 µg/mL (≈ 211 µM) | OB1OCc2ccc(F)cc21 [19m, 1,3-Dihydro-6-fluoro-1-hydroxy-2,1-benzoxaborole] |  |  |  |  |  | 
14 | 32 µg/mL (≈ 211 µM) | 4 µg/mL (≈ 26.3 µM) | 16 µg/mL (≈ 105 µM) | 32 µg/mL (≈ 211 µM) | 16 µg/mL (≈ 105 µM) | OB1OCc2cccc(F)c21 [19n, 1,3-Dihydro-7-fluoro-1-hydroxy-2,1-benzoxaborolane] |  |  |  |  |  | 

— US8106031B2, “Hydrolytically-resistant boron-containing therapeutics and methods of use” (Anacor Pharmaceuticals, Inc., priority 2006, dated 2012)
